In patent US20060079552A1, “1-[2-(4-benzyl-4-hydroxy-piperidin-1-yl)-ethyl]-3-(2-methyl-quinolin-4-yl)-urea salt” (priority 2004, published 2006):
In brackets after ≈: the same amount, converted by molar mass. Where a name gives a salt, the structure may show the parent alone. One block for each compound: values may come before it.

Tests used:
[1] = Solubility in water and aqueous phosphate buffer pH 7; assay type: physicochemical; settings: for Solubility Buffer pH 7 (phosphate, 100 mM): aqueous phosphate buffer pH 7, 100 mM
Description: Solubility was measured in water and aqueous phosphate buffer (pH=7, 100 mM). Results are expressed as mg dissolved compound per mL solvent.

[2] = Hygroscopicity, static method (European Pharmacopoeia Technical Guide), weight increase in humidity cabinet; assay type: physicochemical; settings: for Increase in weight (Δm): after exposure to 79% RH for 24 h, RT
Description: Hygroscopicity was evaluated using the static method according to European Pharmacopoeia Technical Guide. Weight increase of the compound was observed when stored in a humidity cabinet at RT/79% RH for 24 h.

[3] = Pharmacokinetic assessment after oral (gavage) administration in rats; assay type: in vivo, male Wistar rats; settings: for mean exposure, area under the curve (AUC0-inf.): oral (gavage) 10 mg per kg, male Wistar rats, blood samples over 24 h
Description: The pharmacokinetic parameters after oral (gavage) administration of 10 mg per kg of 1-[2-(4-benzyl-4-hydroxy-piperidin-1-yl )-ethyl]-3-(2-methyl-quinolin-4-yl )-urea given as free base or sulfate salt have been determined in male Wistar rats. Blood samples were taken over a time period of 24 h after dosing and analysed with a specific and sensitive liquid chromatography-mass-spectrometry (LC-MS/MS) method. Pharmacokinetic parameters were calculated using a non-compartmental method. The mean exposure of 1-[2-(4-benzyl-4-hydroxy-piperidin-1-yl)-ethyl]-3-(2-methyl-quinolin-4-yl)-urea, expressed as area under the curve (AUC0-inf.), after administration of compound I as free base was 194 ng*h/mL. The mean exposure of 1-[2-(4-benzyl-4-hydroxy-piperidin-1-yl )-ethyl]-3-(2-methyl-quinolin-4-yl )-urea expressed as area under the curve (AUC0-inf.), after administration of the compound described in Example 1 was 396 ng*h/mL.

[4] = Stress test / behaviour at higher temperature and higher humidity; assay type: physicochemical
Description: NMR spectra were recorded on a Varian Mercury 300VX NMR Spectrometer. The spectra are referenced to tetramethylsilane as external standard. X-ray diffraction patterns (XRD) were recorded on a Bruker D5000, using a CU-Kalpha (1.5418 Å) source, a 40 kV-30 mA generator, in a range of 3 et 40° (2theta). Stress test studies were done by exposing samples in open and closed glass bottles to the following conditions: 60° C./80% RH (8 weeks) and 80° C./RH not controlled (48 h).

[5] = biological target: T1, urotensin II receptor (Homo sapiens, UniProt Q9UKP6); settings: Clozel et al., J. Pharmcol. Exp. Ther. 2004, 311, 204-212; cited from earlier work
T1 sequence (Q9UKP6 1-389): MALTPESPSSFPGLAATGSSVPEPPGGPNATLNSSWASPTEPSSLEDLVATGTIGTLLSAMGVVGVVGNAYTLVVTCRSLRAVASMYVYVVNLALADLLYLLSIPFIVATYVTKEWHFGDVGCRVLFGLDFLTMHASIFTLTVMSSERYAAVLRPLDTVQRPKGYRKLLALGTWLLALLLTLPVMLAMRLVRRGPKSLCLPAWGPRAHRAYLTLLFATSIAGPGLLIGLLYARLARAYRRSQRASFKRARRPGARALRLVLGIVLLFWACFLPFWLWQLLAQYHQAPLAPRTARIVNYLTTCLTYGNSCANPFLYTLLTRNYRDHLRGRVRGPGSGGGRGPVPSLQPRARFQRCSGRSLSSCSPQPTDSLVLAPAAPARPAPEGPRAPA

- solubility ([1]; water): 17.8 mg/mL
SMILES: Cc1cc(NC(=O)NCCN2CCC(O)(Cc3ccccc3)CC2)c2ccccc2n1.O=C(O)CC(O)(CC(=O)O)C(=O)O [Example 6, 1-[2-(4-Benzyl-4-hydroxy-piperidin-1-yl)-ethyl]-3-(2-methyl-quinolin-4-yl)-urea citrate]

- hygroscopicity (in words) [2]: hygroscopic
- Increase in weight (Δm) ([2]; listed as Compound I as free base): 8%
- mean exposure, area under the curve (AUC0-inf.) ([3]; listed as compound I as free base): 194 ng·h/mL
- bioavailability after oral dosing ([3]; rat, oral dosing): low bioavailability
- agglomeration [4]: agglomerates to a substance cake
- Solubility Buffer pH 7 (phosphate, 100 mM) [1]: 0.31 mg/mL
- Solubility water ([1]; water): 0.8 mg/mL (≈ 1910 µM)
- solubility in water at pH 7 (in words) ([1]; water at pH 7): slightly soluble
SMILES: Cc1cc(NC(=O)NCCN2CCC(O)(Cc3ccccc3)CC2)c2ccccc2n1 [Compound I, 1-[2-(4-Benzyl-4-hydroxy-piperidin-1-yl)-ethyl]-3-(2-methyl-quinolin4-yl)-urea]
- colour stability [4]: its colour changes at higher temperature and higher humidity
- urotensin II receptor antagonism [5]: potent urotensin II receptor antagonist

- Solubility water ([1]; water, malate): >101 mg/mL
SMILES: Cc1cc(NC(=O)NCCN2CCC(O)(Cc3ccccc3)CC2)c2ccccc2n1 [Example 5, 1-[2-(4-Benzyl-4-hydroxy-piperidin-1-yl)-ethyl]-3-(2-methyl-quinolin-4-yl)-urea malate]

- mean exposure, area under the curve (AUC0-inf.) ([3]; sulfate): 396 ng·h/mL
SMILES: Cc1cc(NC(=O)NCCN2CCC(O)(Cc3ccccc3)CC2)c2ccccc2n1 [Example 1, 1-[2-(4-Benzyl-4-hydroxy-piperidin-1-yl)-ethyl]-3-(2-methyl-quinolin-4-yl)-urea sulfate]

- Increase in weight (Δm) ([2]; sulfate): 4%
- Solubility Buffer pH 7 (phosphate, 100 mM) ([1]; sulfate): 27 mg/mL
- Solubility water ([1]; water, sulfate): 11.3 mg/mL
SMILES: Cc1cc(NC(=O)NCCN2CCC(O)(Cc3ccccc3)CC2)c2ccccc2n1 [Example 2, 1-[2-(4-Benzyl-4-hydroxy-piperidin-1-yl)-ethyl]-3-(2-methyl-quinolin-4-yl)-urea sulfate]
